Laboratory results published in PubChem BioAssay AID330 (DTP/NCI, 2004).
Inconclusive results and toxic doses are left out. Rule for the calls: active = survival T/C of 150% or more; inactive = T/C below 125% in these data. Peptide text beside a SMILES is read from it. * marks the point of attachment. Boc = CC(C)(C)OC(=O)*; NHNH2 = NN*

System: P388 leukemia ip, CD2F1 mice, survival T/C
Assay: NCI In Vivo Anticancer Drug Screen. Data for tumor model P388 Leukemia (intraperitoneal) in CD2F1 (CDF1) mice
Conditions: endpoint: median survival time, higher = longer survival
How it was run: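 Mice carrying the transplanted tumor received test compound or vehicle. Survival was recorded in each group, and the value is the treated-group measurement divided by that of the vehicle-treated control group.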

[1] = dose: 100.0 mg/kg/injection, schedule: Q04DX002 (ip), vehicle: saline with Tween-80
[2] = dose: 200.0 mg/kg/injection, schedule: Q04DX002 (ip), vehicle: saline with Tween-80
[3] = dose: 400.0 mg/kg/injection, schedule: Q04DX002 (ip), vehicle: saline with Tween-80
[4] = dose: 60.0 mg/kg/injection, schedule: Q01DX005 (ip), vehicle: Klucel (hydroxypropylcellulose) (HPC)
[5] = dose: 120.0 mg/kg/injection, schedule: Q01DX005 (ip), vehicle: Klucel (hydroxypropylcellulose) (HPC)
[6] = dose: 240.0 mg/kg/injection, schedule: Q01DX005 (ip), vehicle: Klucel (hydroxypropylcellulose) (HPC)
[7] = dose: 60.0 mg/kg/injection, schedule: Q01DX005 (ip), vehicle: saline with Tween-80
[8] = dose: 120.0 mg/kg/injection, schedule: Q01DX005 (ip), vehicle: saline with Tween-80
[9] = dose: 240.0 mg/kg/injection, schedule: Q01DX005 (ip), vehicle: saline with Tween-80
[10] = dose: 200.0 mg/kg/injection, schedule: Q01DX009 (ip), vehicle: saline with Tween-80
[11] = dose: 50.0 mg/kg/injection, schedule: Q01DX005 (ip), vehicle: saline with Tween-80
[12] = dose: 100.0 mg/kg/injection, schedule: Q01DX005 (ip), vehicle: saline with Tween-80
[13] = dose: 25.0 mg/kg/injection, schedule: Q01DX009 (ip), vehicle: Klucel (hydroxypropylcellulose) (HPC)
[14] = dose: 50.0 mg/kg/injection, schedule: Q01DX009 (ip), vehicle: Klucel (hydroxypropylcellulose) (HPC)
[15] = dose: 100.0 mg/kg/injection, schedule: Q01DX009 (ip), vehicle: Klucel (hydroxypropylcellulose) (HPC)
[16] = dose: 50.0 mg/kg/injection, schedule: Q01DX005 (ip), vehicle: Klucel (hydroxypropylcellulose) (HPC)
[17] = dose: 100.0 mg/kg/injection, schedule: Q01DX005 (ip), vehicle: Klucel (hydroxypropylcellulose) (HPC)
[18] = dose: 200.0 mg/kg/injection, schedule: Q01DX005 (ip), vehicle: Klucel (hydroxypropylcellulose) (HPC)
[19] = dose: 200.0 mg/kg/injection, schedule: Q01DX009 (ip), vehicle: Klucel (hydroxypropylcellulose) (HPC)

Measured: T/C

COc1ccc(/C=N\N=C(/[O-])c2ccc(Cl)cc2)cc1.COc1ccc(/C=N\N=C(/[O-])c2ccc(Cl)cc2)cc1.[Co+2].[OH3+].[OH3+]
inactive: [1] 93 % of control | [2] 102 % of control | [3] 103 % of control

CC1(C)SC(C)(c2ccc[nH]2)N(c2nccs2)C1=O (stereo unspecified)
inactive: [4] 106 % of control | [5] 104 % of control | [6] 102 % of control

CC(C)C(NC(=O)C(Cc1c[nH]c2ccccc12)NC(=O)OC(C)(C)C)C(=O)NN (stereo not drawn) (Boc-Trp-Val-NHNH2; configuration not given here)
inactive: dose: 12.5 mg/kg/injection, schedule: Q01DX009 (ip), vehicle: other 98 % of control | dose: 25.0 mg/kg/injection, schedule: Q01DX009 (ip), vehicle: other 98 % of control | dose: 50.0 mg/kg/injection, schedule: Q01DX009 (ip), vehicle: other 91 % of control | dose: 100.0 mg/kg/injection, schedule: Q01DX009 (ip), vehicle: other 89 % of control | dose: 200.0 mg/kg/injection, schedule: Q01DX009 (ip), vehicle: other 94 % of control

CC1=CC(C)(C)NN1C1=NS(=O)(=O)c2ccccc2N1C
inactive: [7] 101 % of control | [8] 97 % of control | [9] 101 % of control

C/C(=N\N1CN(C(C)C(=O)O)P(N(CCO)CCO)N=C1N)c1cccs1 (stereo unspecified)
inactive: dose: 7.5 mg/kg/injection, schedule: Q01DX005 (ip), vehicle: saline 98 % of control | dose: 15.0 mg/kg/injection, schedule: Q01DX005 (ip), vehicle: saline 101 % of control | dose: 30.0 mg/kg/injection, schedule: Q01DX005 (ip), vehicle: saline 98 % of control

CC1CC2OC(/C=C/C=C/C=C/C=C\C=C\C(O)=C3/C(=O)C(C(C)C)N(C)C3=O)C(O)C2O1 (stereo unspecified)
inactive: dose: 310.0 micrograms/kg/injection, schedule: Q01DX005 (ip), vehicle: saline with Tween-80 99 % of control | dose: 625.0 micrograms/kg/injection, schedule: Q01DX005 (ip), vehicle: saline with Tween-80 94 % of control | dose: 1250.0 micrograms/kg/injection, schedule: Q01DX005 (ip), vehicle: saline with Tween-80 101 % of control | dose: 2500.0 micrograms/kg/injection, schedule: Q01DX005 (ip), vehicle: saline with Tween-80 99 % of control | dose: 5000.0 micrograms/kg/injection, schedule: Q01DX005 (ip), vehicle: saline with Tween-80 99 % of control

Nc1nc(N)c2cc(Sc3ccc(Cl)cc3)ccc2n1
inactive: dose: 25.0 mg/kg/injection, schedule: Q01DX009 (ip), vehicle: saline with Tween-80 118 % of control | [10] 86 % of control

COc1ccc2c(c1)OC/C(=C\c1ccc([N+](=O)[O-])o1)C2=O
inactive: dose: 100.0 mg/kg/injection, schedule: Q01DX009 (ip), vehicle: saline with Tween-80 91 % of control | [10] 86 % of control | dose: 400.0 mg/kg/injection, schedule: Q01DX009 (ip), vehicle: saline with Tween-80 92 % of control

Oc1ccc2ccccc2c1N=Nc1nn[nH]n1
inactive: [11] 99 % of control | [12] 106 % of control

COc1cc(O)ccc1/C=C/C(=O)c1ccc(OC2OC(CO)C(O)C(O)C2O)cc1 (stereo unspecified)
inactive: [1] 98 % of control | [2] 105 % of control | [3] 108 % of control

CCCCCCCCCCCCNC(=S)C(=S)NCCCCCCCCCCCC
inactive: [13] 98 % of control | [14] 95 % of control | [15] 94 % of control

COc1onc(C)c1CC(=O)O
inactive: dose: 18.75 mg/kg/injection, schedule: Q01DX005 (ip), vehicle: saline with Tween-80 97 % of control | dose: 37.5 mg/kg/injection, schedule: Q01DX005 (ip), vehicle: saline with Tween-80 101 % of control | dose: 75.0 mg/kg/injection, schedule: Q01DX005 (ip), vehicle: saline with Tween-80 95 % of control | dose: 150.0 mg/kg/injection, schedule: Q01DX005 (ip), vehicle: saline with Tween-80 99 % of control

CCOC(=O)c1cc(=O)[nH]c2cc(N)ccc12
inactive: [4] 97 % of control | [5] 93 % of control | [6] 91 % of control

O=c1c2cc(Cl)cc(Cl)c2nc2n1S(=O)(=O)c1ccccc1N2c1ccccc1
inactive: dose: 100.0 mg/kg/injection, schedule: Q01DX001 (ip), vehicle: saline with Tween-80 94 % of control | dose: 200.0 mg/kg/injection, schedule: Q01DX001 (ip), vehicle: saline with Tween-80 91 % of control | dose: 400.0 mg/kg/injection, schedule: Q01DX001 (ip), vehicle: saline with Tween-80 95 % of control

CN(C)CCn1ncc(Sc2cc([N+](=O)[O-])ccc2N)c(Cl)c1=O
inactive: [7] 103 % of control | [8] 96 % of control | [9] 97 % of control

CCOC(=O)c1cnc(NCCCNc2ncc(C(=O)OCC)c(=O)[nH]2)[nH]c1=O
inactive: dose: 6.25 mg/kg/injection, schedule: Q01DX005 (ip), vehicle: Klucel (hydroxypropylcellulose) (HPC) 92 % of control | dose: 12.5 mg/kg/injection, schedule: Q01DX005 (ip), vehicle: Klucel (hydroxypropylcellulose) (HPC) 101 % of control | dose: 25.0 mg/kg/injection, schedule: Q01DX005 (ip), vehicle: Klucel (hydroxypropylcellulose) (HPC) 104 % of control | [16] 105 % of control | [17] 106 % of control | [18] 88 % of control

Nc1nc(Cc2ccccc2)cc(-c2cc(Cc3ccccc3)nc(N)n2)n1
inactive: [4] 90 % of control | [5] 95 % of control | [6] 97 % of control

CCOC(=O)c1ccc(N(CCC2CO2)S(=O)(=O)c2ccc(C)cc2)cc1 (stereo unspecified)
inactive: [13] 94 % of control | [14] 93 % of control | [15] 98 % of control | [19] 94 % of control

CN(C)CCC(=O)c1ccc(C(=O)CCN(C)C)cc1
inactive: dose: 25.0 mg/kg/injection, schedule: Q01DX005 (ip), vehicle: saline 108 % of control | dose: 50.0 mg/kg/injection, schedule: Q01DX005 (ip), vehicle: saline 107 % of control | dose: 100.0 mg/kg/injection, schedule: Q01DX005 (ip), vehicle: saline 107 % of control

CCCCC#CCOCC(O)CCl (stereo unspecified)
inactive: dose: 12.5 mg/kg/injection, schedule: Q01DX009 (ip), vehicle: Klucel (hydroxypropylcellulose) (HPC) 100 % of control | [13] 100 % of control | [14] 98 % of control | [15] 100 % of control | [19] 103 % of control

c1ccc(CNc2cccc(NCc3ccccn3)n2)nc1
inactive: [16] 101 % of control | [17] 95 % of control | [18] 108 % of control

CC(O)CCc1nc2ccccc2[nH]1 (stereo unspecified)
inactive: [11] 95 % of control | [12] 100 % of control | dose: 200.0 mg/kg/injection, schedule: Q01DX005 (ip), vehicle: saline with Tween-80 95 % of control

CCOC(=O)NNC1=C(CC(=O)c2ccccc2)C(=O)CC(C)(C)C1
inactive: [14] 101 % of control | [15] 102 % of control | [19] 109 % of control

CC(=O)OC1OC(CF)C(OC(C)=O)C1OC(C)=O (stereo unspecified)
inactive: dose: 50.0 mg/kg/injection, schedule: Q04DX003 (ip), vehicle: saline with Tween-80 112 % of control | dose: 100.0 mg/kg/injection, schedule: Q04DX003 (ip), vehicle: saline with Tween-80 100 % of control | dose: 200.0 mg/kg/injection, schedule: Q04DX003 (ip), vehicle: saline with Tween-80 93 % of control
